# Test results published in patent US20230085307A1, “PYRIDAZINONE COMPOUND AND HERBICIDE” (NISSAN CHEMICAL CORPORATION, priority 2019, published 2023).
# Tests used:
# [1] = tested on: late watergrass; assay: Test Example 1: herbicidal activity, application before weed generation under submerged conditions (Table 16, symbol A); type: in vivo, late watergrass (Echinochloa oryzicola); conditions: 320 g/ha applied herbicide
# Summary of the method: (§1)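 Alluvial soil was flooded to 4 cm depth, weed seeds were sown mixed and 2.5-leaf rice seedlings were transplanted. On sowing day, the compound's emulsion, diluted in water to a set dose, was applied to the water surface. Plants grew at 25–30 °C and were scored 0–5 after three weeks.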
# [2] = tested on: Japanese bulrush; assay: Test Example 1: herbicidal activity, application before weed generation under submerged conditions (Table 16, symbol B); type: in vivo, Japanese bulrush (Schoenoplectus juncoides); conditions: 320 g/ha applied herbicide
# Summary of the method: as §1
# [3] = tested on: oval-leafed pondweed; assay: Test Example 1: herbicidal activity, application before weed generation under submerged conditions (Table 16, symbol C); type: in vivo, oval-leafed pondweed (Monochoria vaginalis); conditions: 320 g/ha applied herbicide
# Summary of the method: as §1
# [4] = tested on: barnyard grass; assay: Test Example 3: herbicidal effect by foliage application, Wagner pot (Table 18, symbol H); type: in vivo, barnyard grass (Echinochloa crus-galli); conditions: amount of applied herbicide 320 g/ha
# Summary of the method: (§2)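 Plants were sown in alluvial soil held under 0.1–0.5 cm standing water and grown 14 days in a greenhouse at 25–30 °C. An emulsifiable formulation, water-diluted to the set dose, was then sprayed onto the foliage, and effects were scored three weeks later using previously defined criteria.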
# [5] = tested on: Chinese sprangletop; assay: Test Example 3: herbicidal effect by foliage application, Wagner pot (Table 18, symbol D); type: in vivo, chinese sprangletop (Leptochloa chinensis); conditions: amount of applied herbicide 320 g/ha
# Summary of the method: as §2
# [6] = tested on: rice flat sedge; assay: Test Example 3: herbicidal effect by foliage application, Wagner pot (Table 18, symbol E); type: in vivo, rice flat sedge (Cyperus iria); conditions: amount of applied herbicide 320 g/ha
# Summary of the method: as §2
# [7] = tested on: southern crabgrass; assay: Test Example 4: herbicidal effect by soil treatment (Table 19, symbol F); type: in vivo, southern crabgrass (Digitaria ciliaris); conditions: amount of applied herbicide 320 g/ha
# Summary of the method: (§3)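 Soil-surface application: an emulsion agent diluted with water to the predetermined dose is sprayed uniformly over seeds lying under roughly 1.5 cm of sterilized diluvial soil. Boxes stay in a greenhouse at 25° C. to 30° C. Three weeks later, each species is graded on previously defined criteria.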
# [8] = tested on: green foxtail; assay: Test Example 4: herbicidal effect by soil treatment (Table 19, symbol G); type: in vivo, green foxtail (Setaria viridis); conditions: amount of applied herbicide 320 g/ha
# Summary of the method: as §3
# [9] = tested on: barnyard grass; assay: Test Example 4: herbicidal effect by soil treatment (Table 19, symbol H); type: in vivo, barnyard grass (Echinochloa crus-galli); conditions: amount of applied herbicide 320 g/ha
# Summary of the method: as §3
# [10] = tested on: wild oat; assay: Test Example 4: herbicidal effect by soil treatment (Table 19, symbol I); type: in vivo, wild oat (Avena fatua); conditions: amount of applied herbicide 320 g/ha
# Summary of the method: as §3
# [11] = tested on: blackgrass; assay: Test Example 4: herbicidal effect by soil treatment (Table 19, symbol J); type: in vivo, blackgrass (Alopecurus myosuroides); conditions: amount of applied herbicide 320 g/ha
# Summary of the method: as §3
# [12] = tested on: Italian ryegrass; assay: Test Example 4: herbicidal effect by soil treatment (Table 19, symbol K); type: in vivo, Italian ryegrass (Lolium multiflorum); conditions: amount of applied herbicide 320 g/ha
# Summary of the method: as §3
# [13] = tested on: windgrass; assay: Test Example 4: herbicidal effect by soil treatment (Table 19, symbol L); type: in vivo, windgrass (Apera spica-venti); conditions: amount of applied herbicide 320 g/ha
# Summary of the method: as §3
# [14] = tested on: velvetleaf; assay: Test Example 4: herbicidal effect by soil treatment (Table 19, symbol M); type: in vivo, velvetleaf (Abutilon theophrasti); conditions: amount of applied herbicide 320 g/ha
# Summary of the method: as §3
# [15] = tested on: redroot pigweed; assay: Test Example 4: herbicidal effect by soil treatment (Table 19, symbol N); type: in vivo, redroot pigweed (Amaranthus retroflexus); conditions: amount of applied herbicide 320 g/ha
# Summary of the method: as §3
# [16] = tested on: lambsquarters; assay: Test Example 4: herbicidal effect by soil treatment (Table 19, symbol O); type: in vivo, lambsquarters (Chenopodium album); conditions: amount of applied herbicide 320 g/ha
# Summary of the method: as §3
# [17] = tested on: chickweed; assay: Test Example 4: herbicidal effect by soil treatment (Table 19, symbol P); type: in vivo, common chickweed (Stellaria media); conditions: amount of applied herbicide 320 g/ha
# Summary of the method: as §3
# [18] = tested on: false cleavers; assay: Test Example 4: herbicidal effect by soil treatment (Table 19, symbol Q); type: in vivo, false cleavers (Galium spurium); conditions: amount of applied herbicide 320 g/ha
# Summary of the method: as §3
# [19] = tested on: persian speedwell; assay: Test Example 4: herbicidal effect by soil treatment (Table 19, symbol R); type: in vivo, Persian speedwell (Veronica persica); conditions: amount of applied herbicide 320 g/ha
# Summary of the method: as §3
# [20] = tested on: southern crabgrass; assay: Test Example 5: herbicidal effect by foliage application, plastic box (Table 20, symbol F); type: in vivo, southern crabgrass (Digitaria ciliaris); conditions: foliage application, AAH 320 g/ha, evaluated three weeks after application
# Summary of the method: (§4)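 Sow seeds spot-wise in sterilized diluvial soil; cover with ~1.5 cm soil. Grow 14 days in greenhouse, 25° C. to 30° C. Spray foliage with emulsion diluted to predetermined amount. Rate effect after 3 weeks.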
# [21] = tested on: green foxtail; assay: Test Example 5: herbicidal effect by foliage application, plastic box (Table 20, symbol G); type: in vivo, green foxtail (Setaria viridis); conditions: foliage application, AAH 320 g/ha, evaluated three weeks after application
# Summary of the method: as §4
# [22] = tested on: barnyard grass; assay: Test Example 5: herbicidal effect by foliage application, plastic box (Table 20, symbol H); type: in vivo, barnyard grass (Echinochloa crus-galli); conditions: foliage application, AAH 320 g/ha, evaluated three weeks after application
# Summary of the method: as §4
# [23] = tested on: wild oat; assay: Test Example 5: herbicidal effect by foliage application, plastic box (Table 20, symbol I); type: in vivo, wild oat (Avena fatua); conditions: foliage application, AAH 320 g/ha, evaluated three weeks after application
# Summary of the method: as §4
# [24] = tested on: blackgrass; assay: Test Example 5: herbicidal effect by foliage application, plastic box (Table 20, symbol J); type: in vivo, blackgrass (Alopecurus myosuroides); conditions: foliage application, AAH 320 g/ha, evaluated three weeks after application
# Summary of the method: as §4
# [25] = tested on: Italian ryegrass; assay: Test Example 5: herbicidal effect by foliage application, plastic box (Table 20, symbol K); type: in vivo, Italian ryegrass (Lolium multiflorum); conditions: foliage application, AAH 320 g/ha, evaluated three weeks after application
# Summary of the method: as §4
# [26] = tested on: windgrass; assay: Test Example 5: herbicidal effect by foliage application, plastic box (Table 20, symbol L); type: in vivo, windgrass (Apera spica-venti); conditions: foliage application, AAH 320 g/ha, evaluated three weeks after application
# Summary of the method: as §4
# [27] = tested on: velvetleaf; assay: Test Example 5: herbicidal effect by foliage application, plastic box (Table 20, symbol M); type: in vivo, velvetleaf (Abutilon theophrasti); conditions: foliage application, AAH 320 g/ha, evaluated three weeks after application
# Summary of the method: as §4
# [28] = tested on: redroot pigweed; assay: Test Example 5: herbicidal effect by foliage application, plastic box (Table 20, symbol N); type: in vivo, redroot pigweed (Amaranthus retroflexus); conditions: foliage application, AAH 320 g/ha, evaluated three weeks after application
# Summary of the method: as §4
# [29] = tested on: lambsquarters; assay: Test Example 5: herbicidal effect by foliage application, plastic box (Table 20, symbol O); type: in vivo, lambsquarters (Chenopodium album); conditions: foliage application, AAH 320 g/ha, evaluated three weeks after application
# Summary of the method: as §4
# [30] = tested on: chickweed; assay: Test Example 5: herbicidal effect by foliage application, plastic box (Table 20, symbol P); type: in vivo, common chickweed (Stellaria media); conditions: foliage application, AAH 320 g/ha, evaluated three weeks after application
# Summary of the method: as §4
# [31] = tested on: persian speedwell; assay: Test Example 5: herbicidal effect by foliage application, plastic box (Table 20, symbol R); type: in vivo, Persian speedwell (Veronica persica); conditions: foliage application, AAH 320 g/ha, evaluated three weeks after application
# Summary of the method: as §4
compound,measurement,setting,value
Cc1nn(C)c(=O)c(-c2c(-c3cccc(O)c3)sc3ccc(F)cc23)c1O [2-336],Herbicidal effect on A: late watergrass (grade 0-5),[1],0 (Herbicidal rate of 5% or less (almost no effect))
same,Herbicidal effect on B: Japanese bulrush (grade 0-5),[2],3 (Herbicidal rate of 40% or more and less than 70%)
same,Herbicidal effect on C: oval-leafed pondweed (grade 0-5),[3],0 (Herbicidal rate of 5% or less (almost no effect))
same,herbicidal effect on H: barnyard grass,[4],5 (Herbicidal rate of 90% or more (almost completely withered))
same,herbicidal effect on D: Chinese sprangletop,[5],0 (Herbicidal rate of 5% or less (almost no effect))
same,herbicidal effect on E: rice flat sedge,[6],3 (Herbicidal rate of 40% or more and less than 70%)
same,herbicidal effect on F: southern crabgrass,[7],3 (Herbicidal rate of 40% or more and less than 70%)
same,herbicidal effect on G: green foxtail,[8],5 (Herbicidal rate of 90% or more (almost completely withered))
same,herbicidal effect on H: barnyard grass,[9],4 (Herbicidal rate of 70% or more and less than 90%)
same,herbicidal effect on I: wild oat,[10],0 (Herbicidal rate of 5% or less (almost no effect))
same,herbicidal effect on J: blackgrass,[11],0 (Herbicidal rate of 5% or less (almost no effect))
same,herbicidal effect on K: Italian ryegrass,[12],3 (Herbicidal rate of 40% or more and less than 70%)
same,herbicidal effect on L: windgrass,[13],0 (Herbicidal rate of 5% or less (almost no effect))
same,herbicidal effect on M: velvetleaf,[14],3 (Herbicidal rate of 40% or more and less than 70%)
same,herbicidal effect on N: redroot pigweed,[15],5 (Herbicidal rate of 90% or more (almost completely withered))
same,herbicidal effect on O: lambsquarters,[16],3 (Herbicidal rate of 40% or more and less than 70%)
same,herbicidal effect on P: chickweed,[17],3 (Herbicidal rate of 40% or more and less than 70%)
same,herbicidal effect on Q: false cleavers,[18],0 (Herbicidal rate of 5% or less (almost no effect))
same,herbicidal effect on R: persian speedwell,[19],5 (Herbicidal rate of 90% or more (almost completely withered))
same,"F: southern crabgrass, herbicidal effect (criteria 0-5)",[20],5 (Herbicidal rate of 90% or more (almost completely withered))
same,"G: green foxtail, herbicidal effect (criteria 0-5)",[21],5 (Herbicidal rate of 90% or more (almost completely withered))
same,"H: barnyard grass, herbicidal effect (criteria 0-5)",[22],1 (Herbicidal rate of 5% or more and less than 20%)
same,"I: wild oat, herbicidal effect (criteria 0-5)",[23],0 (Herbicidal rate of 5% or less (almost no effect))
same,"J: blackgrass, herbicidal effect (criteria 0-5)",[24],3 (Herbicidal rate of 40% or more and less than 70%)
same,"K: Italian ryegrass, herbicidal effect (criteria 0-5)",[25],4 (Herbicidal rate of 70% or more and less than 90%)
same,"L: windgrass, herbicidal effect (criteria 0-5)",[26],4 (Herbicidal rate of 70% or more and less than 90%)
same,"M: velvetleaf, herbicidal effect (criteria 0-5)",[27],1 (Herbicidal rate of 5% or more and less than 20%)
same,"N: redroot pigweed, herbicidal effect (criteria 0-5)",[28],5 (Herbicidal rate of 90% or more (almost completely withered))
same,"O: lambsquarters, herbicidal effect (criteria 0-5)",[29],4 (Herbicidal rate of 70% or more and less than 90%)
same,"P: chickweed, herbicidal effect (criteria 0-5)",[30],5 (Herbicidal rate of 90% or more (almost completely withered))
same,"R: persian speedwell, herbicidal effect (criteria 0-5)",[31],5 (Herbicidal rate of 90% or more (almost completely withered))
